Measured values as given in patent US20100286147A1 (priority 2008, published 2010).

What was measured:
Format in all cases: in vivo
Phytophthora infestans [1] = details: tomato seedlings, sprayed 17 h after inoculation; visual rating, 100 = 100% disease control, 0 = no control relative to controls; test concentration not given
Plasmopara viticola = experiment: Test A: grape downy mildew, grape seedlings sprayed after inoculation; details: sprayed 24 h after inoculation, visual rating, 100 = 100% disease control, 0 = no control relative to controls, test concentration not given
Excerpt: General protocol for preparing test suspensions for Test A-C: The test compounds were first dissolved in acetone in an amount equal to 3% of the final volume and then suspended at the desired concentration (in ppm) in acetone and purified water (50/50 mix by volume) containing 250 ppm of the surfactant Trem® 014 (polyhydric alcohol esters). The resulting test suspensions were then used in Tests A-C. Spraying a 40 ppm test suspension to the point of run-off on the test plants was equivalent to a rate of 100 g/ha.
Grape seedlings were inoculated with a spore suspension of Plasmopara viticola (the causal agent of grape downy mildew) and incubated in a saturated atmosphere at 20° C. for 24 h. After a short drying period, the test suspension was sprayed to the point of run-off on the grape seedlings, which were then moved to a growth chamber at 20° C. for 5 days, after which time the grape seedling were placed back into a saturated atmosphere at 20° C. for 24 h. Upon removal, visual disease ratings were made.
Results for Tests A-C are given in Table A. In the table, a rating of 100 indicates 100% disease control and a rating of 0 indicates no disease control (relative to the controls).

Phytophthora infestans [2] = details: tomato seedlings, sprayed the day before inoculation; visual rating, 100 = 100% disease control, 0 = no control relative to controls; test concentration not given

SMILES | Percent Disease Control Test C (Phytophthora infestans [1]) [%] | Percent Disease Control Test A (Plasmopara viticola) [%] | Percent Disease Control Test B (Phytophthora infestans [2]) [%]
Cc1cc(C(F)(F)F)nn1CC(=O)N1CCC(c2nc(C3=NOC(c4ccccc4-c4ccccc4)C3)cs2)CC1 (stereo not drawn) [Compound 16] | 99 | 99 | 100
Cc1cc(C(F)(F)F)nn1CC(=O)N1CCC(c2nc(C3=NOC(N4C(=O)NC(C)(c5ccccc5)C4=O)C3)cs2)CC1 (stereo not drawn) [Compound 15] | 97 | 92 | 100
Cc1ccc(C)c(NC(=O)N2CCC(c3nc(C4=NOC(c5ccccc5-c5ccccc5)C4)cs3)CC2)c1 (stereo not drawn) [Compound 17, 4-[4-(5-[1,1′-biphenyl]-2-yl-4,5-dihydro-3-isoxazolyl)-2-thiazolyl]-N-(2,5-dimethylphenyl)-1-piperidinecarboxamide] | 99 | 98 | 100
Cc1ccc(C)c(NC(=O)N2CCC(c3nc(C4=NOC(c5ccccc5-n5cncn5)C4)cs3)CC2)c1 (stereo not drawn) [Compound 19] | 99 | 99 | 100
Cc1cc(C(F)(F)F)nn1CC(=O)N1CCC(c2nc(C3=NOC(c4ccccc4Oc4ccccc4)C3)cs2)CC1 (stereo not drawn) [Compound 3] | 93 | 97 | 100
Cc1ccc(C)c(NC(=O)N2CCC(c3nc(C4=NOC(c5ccccc5Oc5ccccc5)C4)cs3)CC2)c1 (stereo not drawn) [Compound 18] | 58 | 67 | 93
Cc1cc(C(F)(F)F)nn1CC(=O)N1CCC(c2nc(C3=NOC(c4ccccc4N4CCCCC4)C3)cs2)CC1 (stereo not drawn) [Compound 4] | 83 | 58 | 99
Cc1cc(C(F)(F)F)nn1CC(=O)N1CCC(c2nc(C3=NOC(c4ccccc4N4CCOCC4)C3)cs2)CC1 (stereo not drawn) [Compound 6] | 99 | 87 | 100
Cc1cc(C(F)(F)F)nn1CC(=O)N1CCC(c2nc(C3=NOC(c4ccccc4N4CCN(C)CC4)C3)cs2)CC1 (stereo not drawn) [Compound 10] | 93 | 10 | 100
Cc1cc(C(F)(F)F)nn1CC(=O)N1CCC(c2nc(C3=NOC(c4c(F)cccc4-n4cncn4)C3)cs2)CC1 (stereo not drawn) [Compound 11] | 99 | 99 | 100
Cc1cccc(C2CC(c3csc(C4CCN(C(=O)Cn5nc(C(F)(F)F)cc5C)CC4)n3)=NO2)c1-n1c(O)nn(C)c1=O (stereo not drawn) [Compound 8] | 53 | 0 | 100
COc1nn(C)c(=O)n1-c1c(C)cccc1C1CC(c2csc(C3CCN(C(=O)Cn4nc(C(F)(F)F)cc4C)CC3)n2)=NO1 (stereo not drawn) [Compound 12] | 99 | 31 | 100
Cc1cc(C(F)(F)F)nn1CC(=O)N1CCC(c2nc(C3=NOC(c4ccccc4-n4cncn4)C3)cs2)CC1 (stereo not drawn) [Compound 5] | 99 | 98 | 100
Cc1cc(C(F)(F)F)nn1CC(=O)N1CCC(c2nc(C3=NOC(c4ccccc4C(=O)c4ccccc4)C3)cs2)CC1 (stereo not drawn) [Compound 9] | 17 | 0 | 100
Cc1cc(C(F)(F)F)nn1CC(=O)N1CCC(c2nc(C3=NOC(c4ccc(-c5ccccc5)cc4)C3)cs2)CC1 (stereo not drawn) [Compound 2] | 32 | 76 | 90
Cc1cc(C(F)(F)F)nn1CC(=O)N1CCC(c2nc(C3=NOC(c4ccccc4Cc4ccccc4)C3)cs2)CC1 (stereo not drawn) [Compound 7] | 86 | 73 | 99
Cc1cc(C(F)(F)F)nn1CC(=O)N1CCC(c2nc(C3=NOC(c4cccc(-n5cncn5)c4)C3)cs2)CC1 (stereo not drawn) [Compound 1, 1-[4-[4-[4,5-dihydro-5-[3-(1H-1,2,4-triazol-1-yl)phenyl]-3-isoxazolyl]-2-thiazolyl]-1-piperidinyl]-2-[5-methyl-3-(trifluoromethyl)-1H-pyrazol-1-yl]ethanone] | 99 | 91 | 100
Cc1cc(C(F)(F)F)nn1CC(=O)N1CCC(c2nc(C3=NOC(n4ccc(-c5ccccc5)n4)C3)cs2)CC1 (stereo not drawn) [Compound 13] | 93 | 56 | 100
